Here are results for 18 compounds from PubChem BioAssay AID624376 (Broad Institute, 2012).

SMILES strings stand for the structures. Records with an inconclusive call do not appear.

The test system of the experiment is LMP1-induced NF-kappaB luciferase reporter cells, luminescence. The experiment in a line: LMP1-driven NF-kB reporter inhibition, dose response, cell-based, luciferase reporter, luminescence, dry powder, set 2 (AID 624376). (In a reporter assay the amount or activity of a reporter protein is the signal.)
Turning to `CN1C(=O)c2cc(NC(=O)c3ccc(C(F)(F)F)cc3)ccc2OC[C@@H]2O[C@@H](CC(=O)NC3Cc4ccccc4C3)CC[C@H]21`, the AC50 (commonly the concentration giving half of the maximal activity seen) is 24.5 µM.

For `O=C(C[C@H]1C[C@H]2c3cc(NS(=O)(=O)c4ccc(F)cc4)ccc3O[C@H]2[C@H](CO)O1)NCc1ccc(Oc2ccccc2)cc1`, the AC50 was 10 µM.

Turning to `CC(C)c1ccc(NC(=O)C[C@H]2CC[C@H]3[C@@H](COc4ccc(NC(=O)Nc5ccc(F)c(F)c5)cc4C(=O)N3C)O2)cc1`, the half-maximal activity concentration (AC50) was 22.2 µM.

As to `Cc1cc(C(=O)Nc2ccc3c(c2)C(=O)N(C)[C@H]2CC[C@@H](CC(=O)NCc4ccc(-c5ccccc5)cc4)O[C@H]2CO3)no1`, the AC50 was 10.8 µM.

For the compound `COc1ccc(-c2cccc(-c3nc(C(=O)NCC(F)(F)F)cc4c3[C@H](CCO)N([S@@](=O)C(C)(C)C)C4)c2)cc1`, the AC50 was 24.3 µM.

Regarding `C[C@@H]1CN([C@H](C)CO)S(=O)(=O)c2ccc(/C=C/c3ccccc3)cc2O[C@H]1CN(C)C(=O)NC1CCCCC1`, the AC50 is 25.3 µM.

For `C[C@H](CO)N1C[C@H](C)[C@H](CN(C)C(=O)NC2CCCCC2)Oc2cc(/C=C/c3ccccc3)ccc2S1(=O)=O`, the AC50 was 31 µM.

Take `N#C[C@H]1N[C@H](CO)[C@H]1c1ccc(C#Cc2ccccc2F)cc1`: the AC50 was below 0.26 µM.

For the compound `N#C[C@@H]1[C@H](c2ccc(C#Cc3ccccc3F)cc2)[C@@H](CO)N1C(=O)c1cccnc1`, the AC50 is 1.02 µM.

In the case of `O=C(Nc1ccc(C(F)(F)F)cc1)Nc1ccc2c(c1)[C@@H]1C[C@H](CC(=O)N3CCc4ccccc4C3)O[C@H](CO)[C@@H]1O2`, the AC50 is 18.3 µM.

Take `O=C(Nc1ccc(C(F)(F)F)cc1)Nc1ccc2c(c1)[C@H]1C[C@H](CC(=O)N3CCc4ccccc4C3)O[C@H](CO)[C@H]1O2`: the AC50 was 24.2 µM.

As for `O=C(C[C@H]1C[C@@H]2c3cc(NC(=O)c4ccc5c(c4)OCO5)ccc3O[C@@H]2[C@@H](CO)O1)NCc1ccc(Oc2ccccc2)cc1`, the AC50 is 24.5 µM.

Regarding `O=C(C[C@H]1CC[C@@H]2[C@H](COC[C@H](O)CN2Cc2ccc(Oc3ccccc3)cc2)O1)N1CCc2ccccc2C1`, the AC50 was 34.5 µM.

`Cc1cc(C(=O)Nc2ccc3c(c2)C(=O)N(C)[C@@H]2CC[C@H](CC(=O)NCc4ccc(-c5ccccc5)cc4)O[C@H]2CO3)no1`: the AC50 was 1.6 µM.

On to `Cc1ccc(S(=O)(=O)N(C)C[C@H]2Oc3cc(C#Cc4ccncc4)ccc3S(=O)(=O)N([C@@H](C)CO)C[C@@H]2C)cc1`, for which the half-maximal activity concentration (AC50) was 21.2 µM.

With `Cc1cc(C(=O)Nc2ccc3c(c2)C(=O)N(C)[C@H]2CC[C@H](CC(=O)NCc4ccc(-c5ccccc5)cc4)O[C@H]2CO3)no1`, the AC50 is 14.7 µM.

`O=C(C[C@@H]1C[C@H]2c3cc(NC(=O)c4ccc5c(c4)OCO5)ccc3O[C@H]2[C@H](CO)O1)NC1CCCCC1`: the AC50 was 16.8 µM.

On to `N#C[C@H]1[C@@H](c2ccc(-c3cccnc3)cc2)[C@@H](CO)N1C(=O)Nc1ccc(F)cc1`, for which the AC50 was 13.9 µM.
